The target in assay [1] is canine TRPM8 (Canis lupus familiaris, UniProt Q1A7N1). In words: In vitro canine TRPM8 functional assay (icilin-induced intracellular Ca2+ increase, FLIPR/FDSS). Format: cell-based. To be noted: 0.2 μM compound; icilin response in HEK293 cells stably expressing canine TRPM8. On the procedure: The functional activity of representative compounds of the formula (I) of the present invention was quantified by measuring changes in intracellular calcium concentration using a Ca^2+-sensitive fluorescent dye. The changes in fluorescent signal were monitored by a fluorescence plate reader, either a FLIPR™ (Molecular Devices) or FDSS (Hamamatsu).
Chain of canine TRPM8 (Q1A7N1 1-1104): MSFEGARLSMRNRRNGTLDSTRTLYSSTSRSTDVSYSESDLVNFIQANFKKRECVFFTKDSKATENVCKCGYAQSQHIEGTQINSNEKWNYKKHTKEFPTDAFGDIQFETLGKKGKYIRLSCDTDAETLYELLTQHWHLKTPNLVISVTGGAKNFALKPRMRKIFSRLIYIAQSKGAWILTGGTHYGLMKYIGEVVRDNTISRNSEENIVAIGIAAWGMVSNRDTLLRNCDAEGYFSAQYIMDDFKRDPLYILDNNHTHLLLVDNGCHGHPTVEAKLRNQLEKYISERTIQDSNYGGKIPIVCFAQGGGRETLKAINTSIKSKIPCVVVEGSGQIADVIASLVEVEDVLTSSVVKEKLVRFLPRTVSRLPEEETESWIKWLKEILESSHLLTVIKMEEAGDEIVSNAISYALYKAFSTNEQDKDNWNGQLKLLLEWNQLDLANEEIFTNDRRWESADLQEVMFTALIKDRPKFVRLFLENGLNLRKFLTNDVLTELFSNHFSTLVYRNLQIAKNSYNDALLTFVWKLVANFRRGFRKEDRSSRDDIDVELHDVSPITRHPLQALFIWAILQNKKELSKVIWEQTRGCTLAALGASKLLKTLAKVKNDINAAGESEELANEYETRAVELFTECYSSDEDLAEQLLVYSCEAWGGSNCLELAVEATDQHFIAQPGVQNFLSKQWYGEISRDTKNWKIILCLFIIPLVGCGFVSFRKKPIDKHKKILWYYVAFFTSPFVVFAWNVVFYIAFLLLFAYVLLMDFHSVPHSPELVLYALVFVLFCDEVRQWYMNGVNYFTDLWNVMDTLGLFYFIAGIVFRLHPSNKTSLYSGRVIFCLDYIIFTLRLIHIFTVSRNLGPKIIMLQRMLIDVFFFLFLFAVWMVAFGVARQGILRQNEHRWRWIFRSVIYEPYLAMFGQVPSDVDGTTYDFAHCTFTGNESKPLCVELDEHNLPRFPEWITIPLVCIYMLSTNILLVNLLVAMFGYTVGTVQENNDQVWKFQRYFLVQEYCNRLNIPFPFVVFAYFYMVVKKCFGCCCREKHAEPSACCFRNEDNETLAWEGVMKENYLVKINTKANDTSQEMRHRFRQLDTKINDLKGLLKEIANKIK
HEK293 cells stably expressing canine TRPM8 were routinely grown as monolayers in Dulbecco's minimum essential medium supplemented with 10% FBS, 2 mM L-glutamine, 100 units/mL penicillin, 100 ug/mL streptomycin and 400 μg/mL G418. Cells were maintained in 5% CO2 at 37° C. […] Cells were treated with compounds of the formula (I) at varying concentrations and intracellular Ca^2+ was measured for 5 min prior to the addition of icilin to each well to achieve a final concentration that produces an approximately 80% maximal response.
Maximal fluorescence intensity (FI) achieved upon addition of icilin was exported from the FLIPR™ or FDSS software and further analyzed using GraphPad Prism 3.02 (Graph Pad Software Inc., CA, U.S.A.). […] Finally, the EC50 and IC50 values were calculated with the best-fit curve determined by GraphPad Prism

Assay [2] has as its target TRPM8 channel (Rattus norvegicus (Rat), UniProt Q8R455). In words: Inhibition of icilin-induced "wet-dog" shakes in rats. Format: in vivo. To be noted: 10 mg/kg p.o. in 10% HP-β-CD, icilin 3.0 mg/kg i.p. On the procedure: Similar shaking or jumping behavior was also evident in mice, rabbits, cats, dogs and monkeys. In humans, icilin produced a sensation of coolness on contact with mucous membranes, cold prickling when 0.1 mg was dropped on the tongue and coldness in the mouth, pharynx and chest lasting 30-60 min when 5-10 mg was ingested orally (WEI, E. T., et al., “AG-3-5: a chemical producing sensations of cold”, J Pharm Pharmacol., 1983, pp 110-112, Vol. 35). The inhibition or reversal of icilin-induced shaking behaviors in rodents provides evidence for the engagement and functional blockade of the TRPM8 channel and thereby for the utility of TRPM8 antagonists in treating or preventing a disease or condition in a mammal in which the disease or condition is affected by the modulation of TRPM8 receptors.
Male Sprague Dawley rats (220-450 g, Charles River Labs, n=6-9/treatment) were used to evaluate the ability of test compounds to block icilin-induced “wet-dog” shakes (WDS). […] Icilin was then administered in 10% solutol/H2O, at 3.0 mg/kg, i.p., and spontaneous “wet-dog” shakes were counted 10 min following the icilin injection over a 10-min period.

Chain of TRPM8 channel (Q8R455 whole entry): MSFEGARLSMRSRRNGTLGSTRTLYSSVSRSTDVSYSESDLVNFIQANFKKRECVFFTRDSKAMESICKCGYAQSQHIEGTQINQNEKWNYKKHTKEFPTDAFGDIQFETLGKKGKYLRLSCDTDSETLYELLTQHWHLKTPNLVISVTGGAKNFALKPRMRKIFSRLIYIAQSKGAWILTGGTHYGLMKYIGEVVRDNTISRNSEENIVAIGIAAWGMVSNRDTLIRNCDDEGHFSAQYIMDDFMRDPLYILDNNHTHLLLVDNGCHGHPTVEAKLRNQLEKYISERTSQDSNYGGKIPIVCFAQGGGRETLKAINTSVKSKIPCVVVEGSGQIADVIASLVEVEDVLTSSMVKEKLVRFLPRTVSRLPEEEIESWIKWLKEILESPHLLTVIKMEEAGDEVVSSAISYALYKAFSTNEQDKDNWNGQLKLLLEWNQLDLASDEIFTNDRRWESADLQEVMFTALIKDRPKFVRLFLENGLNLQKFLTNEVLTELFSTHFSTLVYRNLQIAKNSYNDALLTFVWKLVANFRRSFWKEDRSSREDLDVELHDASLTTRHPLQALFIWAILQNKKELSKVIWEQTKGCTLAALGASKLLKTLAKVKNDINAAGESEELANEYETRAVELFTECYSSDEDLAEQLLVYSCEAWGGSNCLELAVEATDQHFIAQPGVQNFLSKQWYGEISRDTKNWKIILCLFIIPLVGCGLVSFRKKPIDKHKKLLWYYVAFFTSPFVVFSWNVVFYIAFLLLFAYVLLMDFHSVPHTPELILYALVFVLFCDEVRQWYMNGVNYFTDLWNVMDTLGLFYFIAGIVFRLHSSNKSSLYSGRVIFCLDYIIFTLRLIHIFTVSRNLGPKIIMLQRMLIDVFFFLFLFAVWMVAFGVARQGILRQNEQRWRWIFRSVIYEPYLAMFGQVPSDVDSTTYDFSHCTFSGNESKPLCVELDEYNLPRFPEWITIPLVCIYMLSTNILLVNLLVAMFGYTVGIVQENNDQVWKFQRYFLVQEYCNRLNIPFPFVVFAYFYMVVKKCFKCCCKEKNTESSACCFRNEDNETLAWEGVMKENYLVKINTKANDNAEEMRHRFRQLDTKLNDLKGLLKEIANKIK

For `Cn1nc(C(C)(C)C)c(Cl)c1-c1nc2nc(-c3ccccc3C(F)(F)F)cc(C(F)(F)F)c2[nH]1` [Compound 1], in assay [1], the “% Inh @ 0.2 μM” value is 99%.

Take `COc1nc(-c2ccccc2Cl)cc2nc(-c3c(C#N)c(C(C)(C)C)nn3C)[nH]c12.CS(=O)(=O)O` [Compound 17, 3-tert-Butyl-5-[6-(2-chloro-phenyl)-4-methoxy-3H-imidazo[4,5-c]pyridine-2-yl]-1-methyl-1H-pyrazole-4-carbonitrile methanesulfonic acid salt]: the “Icilin % Inhibition @ 1.5 h, 10 mg/kg” value in assay [2] is 38%.

With `Cn1nc(C(C)(C)C)c(Cl)c1-c1nc2nc(-c3ccccc3Cl)cnc2[nH]1` [Compound 110], in assay [1], the “% Inh @ 0.2 μM” value is on record as 99%.

Values taken from patent publication US9718820B2, “Substituted aza-bicyclic imidazole derivatives useful TRPM8 receptor modulators” (Janssen Pharmaceutica NV, priority 2010, dated 2017).
